Entries after “also recorded” stand apart in the source; their conditions may differ.
Key:
[1] = system: proteinase(s) in EDTA plasma from LTR (kallikrein-like peptidase); experiment: Peptidase activity in EDTA plasma from liver transplant recipients (LTR), chromogenic substrate, OD 405 nm; format: biochemical, human; conditions: for % Residual activity, LTR 1 / % Residual activity, LTR 2 / % Residual activity, LTR 3: substrate AGLTR-pNA; for Inhibition of the LTR plasma peptidase activity, in words: text on Tables 2 and 3, concentrations as there
Experimental: Blood samples were drawn into 5 ml EDTA tubes (Venoject; Terumo Corp., Elkton, Md.). The plasma was collected immediately by centrifugation at 2,000×g for 15 min at 4° C. The plasma samples were either processed immediately for analysis or stored at −70° C. Frozen samples were thawed at 4° C. prior to analysis.
(§1) The peptidase activity in plasma samples or of the purified enzymes were routinely determined at 37° C. in a 96-well plate. Each well contained 0.5 mM substrate in 100 μl of Tris-buffered saline (TBS)-EDTA buffer (50 mM Tris/150 mM NaCl/10 mM EDTA, pH 7.8) and the reaction was monitored using a microplate reader (Titertek Multiscan, Labsystems, Needham Heights, Mass.).
(§2) The enzymes C1s (100 nM), plasm in (100 nM), thrombin (100 nM), plasma kallikrein (20 nM), β-FXIIa (100 nM), trypsin (16 nM) or LTR EDTA plasma samples were incubated for 60 min at 4° C. with TBS-EDTA buffer containing either LBTI (1 mg/ml), SBTI (I mg/ml), aprotinin (0.075 mg/ml), benzamidine (50 mM), or Futhan (0.1 mg/ml), before mixing with the substrate. EDTA plasma samples from LTR were diluted 10 or 20-fold with TBS-EDTA. The chromogenic substrate AGLTR-pNA was used for all enzymes and LTR samples except C1s where the substrate S2288 was used. Based on the initial rate of increase in OD at 405 nm, the residual free enzyme level was calculated and expressed as a percentage of total activity without inhibitor added.
(§3) Ten-fold diluted normal EDTA plasma was added to each enzyme. The enzymes C1s (100 nM), plasmin (100 nM), thrombin (100 nM), plasma kallikrein (20 nM), β-FXIIa (100 nM), trypsin (16 nM) or LTR EDTA plasma samples were incubated for 60 min at 4° C. with TBS-EDTA buffer containing either C1INH (40 μg/ml), bdellin (50 μg/ml), hirudin (50 U/ml), PPACK 11(10 μM), or CTI (100 μg/ml), before adding the substrate. LTR samples were 10 or 20-fold diluted with TBS-EDTA. The chromogenic substrate AGLTR-pNA was used for all enzymes and LTP samples except C1s where the substrate S2288 was used. Based on the initial rate of increase in OD at 405 nm, the residual free enzyme was calculated and expressed as a percentage of total activity determined without inhibitor added.

β-Factor XIIa (β-FXIIa) = target: T1, β-Factor XIIa (β-FXIIa) (Homo sapiens, UniProt P00748); experiment: Peptidase (amidolytic) activity of purified β-FXIIa, chromogenic substrate, OD 405 nm; format: biochemical; conditions: substrate AGLTR-pNA
T1 construct: β-Factor XIIa (β-FXIIa) was kindly provided by Dr. Mary J. Heeb; gift of Dr. Mary J. Heeb, The Scripps Research Institute
T1 sequence (P00748 373-615 limits assumed, other chains not shown): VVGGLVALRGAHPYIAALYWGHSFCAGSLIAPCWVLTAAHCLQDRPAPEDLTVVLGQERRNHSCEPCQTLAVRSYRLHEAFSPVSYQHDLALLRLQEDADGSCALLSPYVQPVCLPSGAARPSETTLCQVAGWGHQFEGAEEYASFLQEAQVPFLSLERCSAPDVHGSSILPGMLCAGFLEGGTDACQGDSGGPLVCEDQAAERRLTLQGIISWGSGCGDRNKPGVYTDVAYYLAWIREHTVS
Experimental: as §1
(§4) […] EDTA plasma samples from LTR were diluted 10 or 20-fold with TBS-EDTA. The chromogenic substrate AGLTR-pNA was used for all enzymes and LTR samples except C1s where the substrate S2288 was used. Based on the initial rate of increase in OD at 405 nm, the residual free enzyme level was calculated and expressed as a percentage of total activity without inhibitor added.
(§5) Ten-fold diluted normal EDTA plasma was added to each enzyme. […] LTR samples were 10 or 20-fold diluted with TBS-EDTA. The chromogenic substrate AGLTR-pNA was used for all enzymes and LTP samples except C1s where the substrate S2288 was used. Based on the initial rate of increase in OD at 405 nm, the residual free enzyme was calculated and expressed as a percentage of total activity determined without inhibitor added.

C1s = target: T2, C1s (Homo sapiens, UniProt P09871); experiment: Peptidase (amidolytic) activity of purified C1s, chromogenic substrate, 96-well plate, OD 405 nm; format: biochemical; conditions: for % Residual activity, C1s: substrate S2288; for Inhibition of C1s, in words: text on Tables 2 and 3, concentrations as there
T2 construct: purchased Advanced Research Technologies (San Diego, Calif.)
T2 sequence (P09871 438-688 limits assumed): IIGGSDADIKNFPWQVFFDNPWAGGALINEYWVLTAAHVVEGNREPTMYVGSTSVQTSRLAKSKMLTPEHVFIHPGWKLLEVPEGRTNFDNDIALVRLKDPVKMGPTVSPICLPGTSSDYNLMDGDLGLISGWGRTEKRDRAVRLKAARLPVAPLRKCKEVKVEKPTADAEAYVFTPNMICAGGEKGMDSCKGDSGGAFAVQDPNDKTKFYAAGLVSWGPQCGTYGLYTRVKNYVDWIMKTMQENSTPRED
T2 sequence (P09871 16-437 partner limits assumed): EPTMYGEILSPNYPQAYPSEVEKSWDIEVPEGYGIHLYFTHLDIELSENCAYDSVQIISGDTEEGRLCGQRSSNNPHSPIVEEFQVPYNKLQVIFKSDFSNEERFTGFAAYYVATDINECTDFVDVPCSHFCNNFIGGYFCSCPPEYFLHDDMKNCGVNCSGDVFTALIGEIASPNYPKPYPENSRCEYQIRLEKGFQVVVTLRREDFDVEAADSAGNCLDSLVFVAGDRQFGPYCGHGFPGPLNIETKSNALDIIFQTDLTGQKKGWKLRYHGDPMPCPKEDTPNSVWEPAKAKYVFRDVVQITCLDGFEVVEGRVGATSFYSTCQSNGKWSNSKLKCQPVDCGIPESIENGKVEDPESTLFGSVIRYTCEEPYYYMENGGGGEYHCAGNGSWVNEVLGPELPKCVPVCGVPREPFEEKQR
Experimental: as §1, §2, §3

thrombin = target: T3, thrombin (Homo sapiens, UniProt P00734); experiment: Peptidase (amidolytic) activity of purified thrombin, chromogenic substrate, OD 405 nm; format: biochemical
T3 construct: purchased Calbiochem-Novabiochem Corp (La Jolla, Calif.)

plasmin = target: T4, plasmin (Homo sapiens, UniProt P00747); experiment: Peptidase (amidolytic) activity of purified plasmin, chromogenic substrate, OD 405 nm; format: biochemical; conditions: for % Residual activity, Plasmin: substrate AGLTR-pNA
T4 construct: purchased Calbiochem-Novabiochem Corp (La Jolla, Calif.)
T4 sequence (P00747 581-810 limits assumed, species assumed): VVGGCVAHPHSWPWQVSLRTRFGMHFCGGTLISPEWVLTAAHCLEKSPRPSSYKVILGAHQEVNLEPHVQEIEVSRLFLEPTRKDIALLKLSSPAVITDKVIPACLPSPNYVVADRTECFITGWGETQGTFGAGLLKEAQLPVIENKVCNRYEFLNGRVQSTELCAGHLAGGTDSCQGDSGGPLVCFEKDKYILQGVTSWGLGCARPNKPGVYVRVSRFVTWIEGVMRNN
T4 sequence (P00747 97-580 partner limits assumed, species assumed): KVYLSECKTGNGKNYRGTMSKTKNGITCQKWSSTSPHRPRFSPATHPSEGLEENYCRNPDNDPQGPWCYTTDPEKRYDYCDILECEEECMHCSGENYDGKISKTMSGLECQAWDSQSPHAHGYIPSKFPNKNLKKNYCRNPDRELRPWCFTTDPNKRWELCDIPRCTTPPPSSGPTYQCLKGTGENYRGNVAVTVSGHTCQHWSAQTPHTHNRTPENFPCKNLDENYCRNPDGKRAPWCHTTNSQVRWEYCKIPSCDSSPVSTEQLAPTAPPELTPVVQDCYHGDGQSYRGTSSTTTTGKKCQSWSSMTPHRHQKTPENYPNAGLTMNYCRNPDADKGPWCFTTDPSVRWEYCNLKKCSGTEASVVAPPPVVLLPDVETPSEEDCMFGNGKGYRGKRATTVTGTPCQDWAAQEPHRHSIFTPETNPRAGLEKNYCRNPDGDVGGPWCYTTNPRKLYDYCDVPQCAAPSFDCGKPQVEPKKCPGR
Experimental: as §1, §2, §3

trypsin = experiment: Peptidase (amidolytic) activity of purified trypsin, chromogenic substrate, OD 405 nm; format: biochemical; conditions: Table 2
Experimental: as §1, §2

plasma kallikrein = target: T5, plasma kallikrein (Homo sapiens, UniProt P03952); experiment: Peptidase (amidolytic) activity of purified plasma kallikrein, chromogenic substrate, OD 405 nm; format: biochemical; conditions: for % Residual activity, Plasma Kallikrein: substrate AGLTR-pNA; for Inhibition of purified plasma kallikrein activity, in words: text on Tables 2 and 3, concentrations as there
T5 construct: The light chain of kallikrein contains the enzymatic domain; purchased Calbiochem-Novabiochem Corp (La Jolla, Calif.)
T5 sequence (P03952 391-638 limits assumed): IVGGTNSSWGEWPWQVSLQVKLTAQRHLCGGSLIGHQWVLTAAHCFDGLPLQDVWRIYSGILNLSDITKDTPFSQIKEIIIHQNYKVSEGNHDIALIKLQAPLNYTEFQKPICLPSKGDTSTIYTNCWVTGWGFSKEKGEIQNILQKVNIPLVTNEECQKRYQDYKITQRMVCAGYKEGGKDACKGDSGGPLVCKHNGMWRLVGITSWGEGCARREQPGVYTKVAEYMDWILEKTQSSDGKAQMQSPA
T5 sequence (P03952 20-390 partner limits assumed): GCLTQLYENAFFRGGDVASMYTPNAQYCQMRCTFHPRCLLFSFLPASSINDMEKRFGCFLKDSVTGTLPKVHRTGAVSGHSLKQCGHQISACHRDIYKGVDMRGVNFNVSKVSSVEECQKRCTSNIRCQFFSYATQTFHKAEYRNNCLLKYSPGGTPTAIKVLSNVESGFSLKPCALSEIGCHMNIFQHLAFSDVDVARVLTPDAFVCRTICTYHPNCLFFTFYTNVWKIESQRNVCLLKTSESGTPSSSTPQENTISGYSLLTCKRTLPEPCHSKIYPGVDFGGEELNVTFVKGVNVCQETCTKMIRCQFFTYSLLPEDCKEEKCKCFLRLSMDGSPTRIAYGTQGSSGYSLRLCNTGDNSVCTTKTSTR
Experimental: as §1, §4, §5

[2] = Table 3, LTR 1 EDTA plasma 10 or 20-fold diluted, 60 min at 4° C. with C1INH 40 μg/ml, bdellin 50 μg/ml, hirudin 50 U/ml, PPACK 11 10 μM or CTI 100 μg/ml
[3] = Table 3, LTR 2 EDTA plasma 10 or 20-fold diluted, 60 min at 4° C. with C1INH 40 μg/ml, bdellin 50 μg/ml, hirudin 50 U/ml, PPACK 11 10 μM or CTI 100 μg/ml
[4] = Table 3, LTR 3 EDTA plasma 10 or 20-fold diluted, 60 min at 4° C. with C1INH 40 μg/ml, bdellin 50 μg/ml, hirudin 50 U/ml, PPACK 11 10 μM or CTI 100 μg/ml
[5] = Table 3, thrombin 100 nM with ten-fold diluted normal EDTA plasma added, substrate AGLTR-pNA, 60 min at 4° C. with hirudin 50 U/ml or PPACK 11 10 μM
[6] = Table 3, C1s 100 nM with ten-fold diluted normal EDTA plasma added, 60 min at 4° C. with C1INH 40 μg/ml or PPACK 11 10 μM
[7] = Table 3, plasma kallikrein 20 nM with ten-fold diluted normal EDTA plasma added, 60 min at 4° C. with C1INH 40 μg/ml or PPACK 11 10 μM

Substance	Inhibition of the LTR plasma peptidase activity, in words [1]	Inhibition of C1s, in words (C1s)	Inhibition of purified plasma kallikrein activity, in words (plasma kallikrein)	% Residual activity, LTR 1 [1, 2] [%]	% Residual activity, LTR 2 [1, 3] [%]	% Residual activity, LTR 3 [1, 4] [%]	% Residual activity, Thrombin (thrombin; [5]) [%]	% Residual activity, C1s (C1s; [6]) [%]	% Residual activity, Plasma Kallikrein (plasma kallikrein; [7]) [%]	also measured
aprotinin	only partially effective	but not C1s	efficiently inhibited							% Residual activity, LTR 1 ([1]; Table 2, LTR 1 EDTA plasma diluted 10 or 20-fold, 60 min at 4° C. with LBTI 1 mg/ml, SBTI I mg/ml, aprotinin 0.075 mg/ml, benzamidine 50 mM or Futhan 0.1 mg/ml): 35.3%; % Residual activity, LTR 2 ([1]; Table 2, LTR 2 EDTA plasma diluted 10 or 20-fold, 60 min at 4° C. with LBTI 1 mg/ml, SBTI I mg/ml, aprotinin 0.075 mg/ml, benzamidine 50 mM or Futhan 0.1 mg/ml): 40.2%; % Residual activity, LTR 3 ([1]; Table 2, LTR 3 EDTA plasma diluted 10 or 20-fold, 60 min at 4° C. with LBTI 1 mg/ml, SBTI I mg/ml, aprotinin 0.075 mg/ml, benzamidine 50 mM or Futhan 0.1 mg/ml): 21.4%; % Residual activity, β-FXIIa (β-Factor XIIa (β-FXIIa); Table 2, β-FXIIa 100 nM, 60 min at 4° C. with LBTI 1 mg/ml, SBTI I mg/ml, aprotinin 0.075 mg/ml, benzamidine 50 mM or Futhan 0.1 mg/ml): 106.0%; % Residual activity, C1s (C1s; Table 2, C1s 100 nM, 60 min at 4° C. with LBTI 1 mg/ml, SBTI I mg/ml, aprotinin 0.075 mg/ml, benzamidine 50 mM or Futhan 0.1 mg/ml, % of total activity without inhibitor): 104.8%; % Residual activity, Thrombin (thrombin; Table 2, thrombin 100 nM, substrate AGLTR-pNA, 60 min at 4° C. with LBTI 1 mg/ml, SBTI I mg/ml, aprotinin 0.075 mg/ml, benzamidine 50 mM or Futhan 0.1 mg/ml): 84.6%; Inhibition of plasmin amidolytic activity, in words (plasmin; Table 2, concentrations as there): efficiently inhibited; % Residual activity, Plasmin (plasmin; Table 2, plasmin 100 nM, 60 min at 4° C. with LBTI 1 mg/ml, SBTI I mg/ml, aprotinin 0.075 mg/ml, benzamidine 50 mM or Futhan 0.1 mg/ml): 2.4%; Inhibition of trypsin amidolytic activity, in words (trypsin; concentrations as there): efficiently inhibited; % Residual activity, Trypsin (trypsin; trypsin 16 nM, substrate AGLTR-pNA, 60 min at 4° C. with LBTI 1 mg/ml, SBTI I mg/ml, aprotinin 0.075 mg/ml, benzamidine 50 mM or Futhan 0.1 mg/ml): 4.8%; % Residual activity, Plasma Kallikrein (plasma kallikrein; Table 2, plasma kallikrein 20 nM, 60 min at 4° C. with LBTI 1 mg/ml, SBTI I mg/ml, aprotinin 0.075 mg/ml, benzamidine 50 mM or Futhan 0.1 mg/ml): 3.5%
Hirudin	failed to reduce the plasma peptidase activity; also recorded: not inhibited			100.4	99.5	104.1	2.6			Inhibition of thrombin by hirudin (FIG. 8), in words (thrombin; 50 U/ml hirudin, substrate AGLTR-pNA, versus time at 37° C.): effectively inhibited; Inhibition of thrombin, in words (thrombin; Table 3): a very effective thrombin inhibitor
D-Phe-Phe-Arg-chloromethylketone [PPACK II]	totally inhibited; also recorded: substantially inhibited	failed to inhibit C1s	totally inhibited	−0.2	0.6	2.7	0.7	82.2	0.0	% Residual activity, β-FXIIa (β-Factor XIIa (β-FXIIa); Table 3, β-FXIIa 100 nM with ten-fold diluted normal EDTA plasma added, 60 min at 4° C. with PPACK 11 10 μM or CTI 100 μg/ml): 8.4%; % Residual activity, Plasmin (plasmin; Table 3, plasmin 100 nM with ten-fold diluted normal EDTA plasma added, 60 min at 4° C. with bdellin 50 μg/ml or PPACK 11 10 μM): 9.2%
C1INH: human C1 esterase inhibitor, purchased from Sigma Chemical	caused only partial inhibition	only partially inhibited C1s	caused only partial inhibition	81.4	84.0	41.0		37.8	37.0	Inhibition of the LTR plasma peptidase activity, in words ([1]; listed as CINH): inhibited partially
